What all share (assay): NCI tumour cell line growth inhibition, 48 h
In assay [1] the test system is UO-31.
For assay [2], the system named is CAKI-1.
The test system of assay [3] is NCI-H460.
Assay [4] concerns NCI-H23.
For assay [5], the system named is HCC 2998.
Assay [6] concerns BT-549.
Assay [7] relates to SNB-19.
Assay [8] deals with OVCAR-4.
Assay [9] concerns HOP-92.
Assay [10] concerns U-251.
Assay [11] has as its system KM12.
Assay [12] has as its system HL-60.
In assay [13] the test system is SF-539.
For assay [14], the system named is Malme-3M.
Assay [15] has as its system MDA-N.
For assay [16], the system named is ACHN.
The subject of assay [17] is OVCAR-5.
In assay [18] the test system is DLD-1.
In assay [19] the test system is HCT-15.
Assay [20] concerns M14.

Each structure is given as a SMILES string.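 Five concentrations, 48 hours, 96-well plates. GI50 = concentration required for 50% inhibition of growth.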 Activity calls are given as the source filed them. Cut-off read from the data, not from the text of the source: active = GI50 up to about 1.1 µM and inactive = higher. Bounds are passed on as bounds.

Turning to `COc1cc(NS(C)(=O)=O)ccc1Nc1c2ccccc2nc2ccccc12` [AMSACRINE], the GI50 in assay [1] is 0.661 µM (active); in assay [2] it was 0.0973 µM (active); in assay [3] it was 0.028 µM (active); in assay [4], 0.152 µM (active); in assay [5], 1.24 µM (inactive); in assay [6] it was 1.04 µM (active). In addition, the GI50 in assay [7] is 0.296 µM (active); in [8], 4.05 µM (inactive); in assay [9] it was 0.524 µM (active); in assay [10] it was 0.166 µM (active); in [11], 1.44 µM (inactive); in assay [12], 0.0519 µM (active). For the same compound, the GI50 in [13] is 0.207 µM (active); in [14] it was 0.611 µM (active); in assay [15], 3.32 µM (inactive); in assay [16], 0.0525 µM (active); in assay [17], 1.58 µM (inactive); in assay [18], 2.79 µM (inactive). Further, the figures for the GI50 in assay [19] and in [20] were 0.716 µM and 0.266 µM (active), respectively.

In the case of `CC(C)(C)C1=CC(CCC(=O)Nc2ccccc2[N+](=O)[O-])=NC(S)N1` (stereo unspecified), the GI50 in assay [1], in assay [2], in assay [3], in assay [4], in assay [5] and in assay [7] was > 100 µM (inactive) each time. Further, the GI50 in assay [8], in assay [9], in [10], in assay [11], in assay [12] and in [13] was > 100 µM (inactive) each time. Besides, the GI50 was > 100 µM (inactive) in [14]; > 100 µM (inactive) in [16]; > 100 µM (inactive) in [17]; > 100 µM (inactive) in [18]; more than 100 µM in assay [19]; > 100 µM (inactive) in assay [20].

`NC(=O)N=C(N(Cc1ccccc1)Cc1ccccc1)N(Cc1ccccc1)Cc1ccccc1`: the GI50 in [1] is > 100 µM (inactive); in assay [2], > 100 µM (inactive); in assay [4], 9.42 µM (inactive); in [5] it was 5.22 µM (inactive); in assay [6] it was > 100 µM (inactive); in [7] it was > 43.9 µM (inactive). The GI50 in [8] is 6.22 µM (inactive); in assay [9], 4.3 µM (inactive); in assay [10], 7.45 µM (inactive); in [11], > 100 µM (inactive); in [13], 28.1 µM (inactive); in assay [14] it was > 100 µM (inactive). For the same compound, the GI50 was > 24.4 µM (inactive) in assay [16], > 100 µM (inactive) in assay [17], 4.83 µM (inactive) in [18] and more than 28.4 µM in [19].

For `Cc1ccc(N2C(=O)/C(=C/c3ccc(N(CCC#N)CCC#N)cc3C)N=C2c2cc([N+](=O)[O-])ccc2Cl)cc1`, the GI50 in [1] was > 100 µM (inactive); in [2], 56 µM (inactive); in assay [3] it was > 100 µM (inactive); in assay [4], > 100 µM (inactive); in assay [5], > 100 µM (inactive); in [7], > 100 µM (inactive). For the same compound, the GI50 in assay [8], in [9], in assay [10], in assay [11], in [12] and in assay [13] was > 100 µM (inactive) throughout. For the same compound, the GI50 was > 100 µM (inactive) in assay [14]; > 100 µM (inactive) in assay [16]; > 100 µM (inactive) in assay [17]; > 100 µM (inactive) in assay [18]; more than 100 µM in [19]; > 100 µM (inactive) in assay [20].

On to `CN(Cc1cnc2nc(N)nc(N)c2n1)c1ccc(C(=O)N[C@@H](CCC(=O)O)C(=O)O)cc1` [METHOTREXATE], for which the GI50 is 0.227 µM (active) in [1]; 0.0614 µM (active) in assay [2]; 0.028 µM (active) in assay [3]; 0.0408 µM (active) in assay [4]; 0.119 µM (active) in assay [5]; 69.5 µM (inactive) in assay [6]. Besides, the GI50 in assay [7] is 0.59 µM (active); in [8] it was 59.6 µM (inactive); in [9], 7.21 µM (inactive); in assay [10] it was 0.0723 µM (active); in assay [11], 0.0493 µM (active); in [12] it was 0.043 µM (active). Further, the GI50 in assay [13] was 0.0375 µM (active); in assay [14], 2.36 µM (inactive); in assay [16] it was 0.0385 µM (active); in [17] it was 0.916 µM (active); in [18], 0.0356 µM (active); in assay [19], 0.0343 µM. Moreover, the GI50 in assay [20] is 0.0334 µM (active).

Values taken from ChEMBL document CHEMBL1201862, “PubChem BioAssay data set” (2004).
